The values that follow come from ChEMBL document CHEMBL1201862, “PubChem BioAssay data set” (2004).

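The compound was tested at five concentrations on cells cultured in 96-well plates, with a 48-hour exposure period. GI50: concentration for 50% inhibition of growth.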 Calls of active or inactive are those of the source. No stated cut-off is given here; in the data, active = GI50 up to about 1.1 µM and inactive = higher. Where only a bound is given, the exact number is not on record here.

Among the test systems are NCI-H522; A498; SF-539; MOLT-4; IGROV-1; SF-268; SK-OV-3; SF-295; SNB-75; NCI-H226; KM12; OVCAR-3; COLO 205; NCI-H23; CCRF-CEM; K562; HCT-15.
Experiment in all cases: NCI-60 cell line screen, 48 h

In the case of `COc1ccc(C(=O)O)c(Br)c1OCc1ccccc1`, the GI50 in the test on NCI-H522, in the test with A498, in the test on SF-539, with MOLT-4, with IGROV-1 and with SF-268 was > 100 µM (inactive) throughout. For the same compound, the GI50 with SK-OV-3, with SF-295, in the test on SNB-75, with NCI-H226, with KM12 and in the test with OVCAR-3 was > 100 µM (inactive) in each case. In addition, the GI50 in the test on COLO 205 is > 100 µM (inactive); in the test on NCI-H23 it was > 100 µM (inactive); in the test with CCRF-CEM, > 100 µM (inactive); in the test on K562 it was > 100 µM (inactive); with HCT-15, greater than 100 µM.
In the case of `CCc1cccc(C)c1NC(=O)CCc1nnc2s/c(=C\c3cccc4ccccc34)c(=O)n12`, the GI50 in the test with NCI-H522 was > 100 µM (inactive); with A498 it was > 100 µM (inactive); with SF-539, > 100 µM (inactive); in the test with MOLT-4 it was 17.9 µM (inactive); in the test on IGROV-1, > 100 µM (inactive); in the test on SF-268, > 100 µM (inactive). For the same compound, the GI50 in the test with SK-OV-3 is > 100 µM (inactive); in the test on SF-295 it was 71.1 µM (inactive); with SNB-75, > 100 µM (inactive); with NCI-H226 it was > 100 µM (inactive); in the test on KM12, 92.7 µM (inactive); in the test on OVCAR-3 it was 78 µM (inactive). Besides, the GI50 with COLO 205 was > 100 µM (inactive); in the test with NCI-H23, > 100 µM (inactive); in the test with CCRF-CEM, 92.9 µM (inactive); in the test with K562 it was 30.3 µM (inactive); with HCT-15, 89.1 µM.
For `C/C(=N\N(C)C)C(CN(C)C)C(c1ccccc1)c1c(O)c2ccccc2oc1=O` (stereo not given), the GI50 in the test with NCI-H522, with MOLT-4, in the test on IGROV-1, with SF-268, in the test on SK-OV-3 and in the test on SF-295 was > 100 µM (inactive) in each case. In addition, the GI50 in the test on SNB-75 was 30.3 µM (inactive); in the test with NCI-H226, > 100 µM (inactive); in the test with KM12, > 100 µM (inactive); in the test with OVCAR-3 it was > 100 µM (inactive); in the test with COLO 205 it was > 100 µM (inactive); with NCI-H23, > 100 µM (inactive). Moreover, the GI50 is > 100 µM (inactive) in the test on CCRF-CEM, > 100 µM (inactive) in the test with K562 and greater than 100 µM in the test with HCT-15.
For `O=C(Nc1cccc([N+](=O)[O-])c1)C(=O)C(C(=O)c1ccccc1-c1ccccc1)C1OC(=O)c2ccccc21` (stereo not given), the GI50 was 11.4 µM (inactive) in the test with NCI-H522; 23.2 µM (inactive) in the test with A498; 14.5 µM (inactive) in the test with SF-539; 13.2 µM (inactive) with MOLT-4; 30.8 µM (inactive) in the test on IGROV-1; 22.2 µM (inactive) in the test on SF-268. Moreover, the GI50 was 32.5 µM (inactive) with SK-OV-3; 22 µM (inactive) in the test with SF-295; 22.9 µM (inactive) with SNB-75; 5.96 µM (inactive) in the test on NCI-H226; 20 µM (inactive) in the test on KM12; 15.4 µM (inactive) in the test with OVCAR-3. Besides, the GI50 is 20 µM (inactive) in the test on COLO 205, 14.7 µM (inactive) in the test on NCI-H23, 22.9 µM (inactive) in the test with CCRF-CEM and 28 µM (inactive) in the test with K562.
On to `NC(=O)C1C(=O)Oc2cccnc21` (stereo not given), for which the GI50 in the test on NCI-H522, in the test with SF-539, with MOLT-4, in the test on IGROV-1, in the test on SK-OV-3 and with SF-295 was > 100 µM (inactive) each time. The GI50 in the test with SNB-75 is 17.8 µM (inactive); in the test on NCI-H226, 96.2 µM (inactive); in the test with KM12, > 100 µM (inactive); in the test with OVCAR-3 it was > 100 µM (inactive); with COLO 205 it was > 100 µM (inactive); with NCI-H23 it was > 100 µM (inactive). Also, the figures for the GI50 in the test on CCRF-CEM, with K562 and in the test on HCT-15 were > 100 µM (inactive), > 100 µM (inactive) and greater than 100 µM, respectively.
In the case of `CC(=O)NC(CCCN(Cc1ccccc1)C(=O)N(C)N=O)C(=O)NCc1ccccc1` (stereo not given), the GI50 in the test on NCI-H522 is 37.1 µM (inactive); in the test on A498 it was > 100 µM (inactive); in the test with SF-539, > 100 µM (inactive); in the test with MOLT-4, 57.1 µM (inactive); in the test with IGROV-1, > 100 µM (inactive); in the test with SF-268, 95.3 µM (inactive). For the same compound, the GI50 in the test on SK-OV-3 is > 100 µM (inactive); with SF-295, > 100 µM (inactive); in the test with SNB-75, 27.4 µM (inactive); in the test with NCI-H226 it was > 100 µM (inactive); with KM12, > 100 µM (inactive); with OVCAR-3, > 100 µM (inactive). For the same compound, the GI50 with COLO 205 was > 100 µM (inactive); with NCI-H23, > 100 µM (inactive); in the test with CCRF-CEM, > 100 µM (inactive); in the test on K562, > 100 µM (inactive); in the test on HCT-15, greater than 100 µM.
Take `O/N=C(\C(=N/O)Nc1ccc(-c2ccc(NC(=N/O)/C(=N\O)c3ccccc3)cc2)cc1)c1ccccc1`: the GI50 is 17.8 µM (inactive) with NCI-H522; 24.1 µM (inactive) with A498; 18.9 µM (inactive) in the test on SF-539; 17.3 µM (inactive) in the test with MOLT-4; 25.1 µM (inactive) in the test with IGROV-1; 27.4 µM (inactive) in the test on SF-268. The GI50 with SK-OV-3 is 17.5 µM (inactive); in the test with SF-295, 18.6 µM (inactive); with NCI-H226 it was 28.5 µM (inactive); in the test on KM12, 19 µM (inactive); in the test with OVCAR-3, 17.1 µM (inactive); in the test on COLO 205, 16.7 µM (inactive). In addition, the GI50 was 17.5 µM (inactive) in the test on NCI-H23, 18.8 µM (inactive) with CCRF-CEM, 18 µM (inactive) with K562 and 27.3 µM in the test with HCT-15.
As for `C[Si](C)(C)C1(Sc2ccccc2)SCCCS1`, the GI50 in the test on NCI-H522 was 17.9 µM (inactive); in the test on A498, 40.6 µM (inactive); in the test with SF-539, 24.9 µM (inactive); in the test with MOLT-4, 15.1 µM (inactive); in the test with IGROV-1 it was 41.8 µM (inactive); with SF-268 it was 31.8 µM (inactive). The GI50 is > 100 µM (inactive) in the test on SK-OV-3; 54.3 µM (inactive) with SF-295; 37.8 µM (inactive) in the test with SNB-75; 64.7 µM (inactive) in the test on KM12; 30.1 µM (inactive) in the test on OVCAR-3; 41.5 µM (inactive) with COLO 205. Besides, the GI50 in the test with NCI-H23 was 31.6 µM (inactive); in the test on CCRF-CEM it was 14.8 µM (inactive); in the test with K562 it was 31.1 µM (inactive); in the test with HCT-15, 27.2 µM.
`COC(=O)C(C#CCCCCC#CC(NC(=O)OCc1ccccc1)(C(=O)OC)C(F)(F)F)(NC(=O)OCc1ccccc1)C(F)(F)F` (stereo not given): the GI50 in the test on NCI-H522, in the test on A498, in the test with SF-539, in the test with IGROV-1, in the test on SF-268 and with SK-OV-3 was > 100 µM (inactive) in each case. For the same compound, the GI50 with SF-295, in the test on SNB-75, with NCI-H226, in the test with KM12, with OVCAR-3 and in the test with COLO 205 was > 100 µM (inactive) throughout. Further, the GI50 with NCI-H23 is > 100 µM (inactive); in the test with CCRF-CEM, > 100 µM (inactive); in the test on K562, 8.38 µM (inactive); in the test with HCT-15 it was greater than 100 µM.
As to `CC1=CC(/C=C(\C)CCCc2ccoc2)C2(OC(=O)C(C)=C2O)[C@H]2C1CC[C@@H]2C` (stereo not given in full), the GI50 in the test on NCI-H522 was 13.9 µM (inactive); in the test on A498 it was 15.5 µM (inactive); in the test with SF-539, 17.5 µM (inactive); with MOLT-4, 19.2 µM (inactive); in the test on IGROV-1 it was 32.3 µM (inactive); in the test with SK-OV-3, 26.2 µM (inactive). Also, the GI50 was 20.7 µM (inactive) in the test on SF-295; 33.7 µM (inactive) in the test on SNB-75; 22.7 µM (inactive) in the test with NCI-H226; 31.8 µM (inactive) in the test with KM12; 21.4 µM (inactive) in the test with OVCAR-3; 21.9 µM (inactive) in the test on COLO 205. For the same compound, the GI50 in the test with NCI-H23 is 20.5 µM (inactive); in the test on CCRF-CEM it was 22.1 µM (inactive); in the test with K562 it was 24.7 µM (inactive); in the test with HCT-15 it was 15.5 µM.
On to `CCCCCc1cc(OC(=O)c2c(O)cc(OC)cc2CCCCC)cc(O)c1C(=O)O`, for which the GI50 is 11.1 µM (inactive) in the test on NCI-H522; 19.8 µM (inactive) with A498; 16.8 µM (inactive) in the test on SF-539; 23.5 µM (inactive) in the test with MOLT-4; 16.6 µM (inactive) with IGROV-1; 13.2 µM (inactive) with SF-268. In addition, the GI50 in the test with SK-OV-3 was 16.7 µM (inactive); with SF-295, 16.8 µM (inactive); with SNB-75, 17.2 µM (inactive); with KM12, 17.3 µM (inactive); in the test on COLO 205, 18.2 µM (inactive); in the test on NCI-H23, 12.4 µM (inactive). For the same compound, the figures for the GI50 with CCRF-CEM, in the test with K562 and in the test with HCT-15 were 20.7 µM (inactive), 26.8 µM (inactive) and 12.6 µM, respectively.
Consider `COC(=O)C(=O)C(CC(=O)Nc1cccc(C(F)(F)F)c1)C(=O)OC` (stereo not given), for which the GI50 in the test on NCI-H522, in the test with A498, in the test on SF-539, in the test with MOLT-4, in the test on IGROV-1 and with SF-268 was > 100 µM (inactive) in each case. For the same compound, the GI50 in the test on SK-OV-3, in the test on SNB-75, in the test with NCI-H226, in the test with COLO 205, with NCI-H23 and in the test with CCRF-CEM was > 100 µM (inactive) in each case. The GI50 is > 100 µM (inactive) in the test on K562 and greater than 100 µM in the test with HCT-15.
